Data reported in patent publication US11111251B2, “Positive allosteric modulators of the muscarinic acetylcholine receptor M1” (Vanderbilt University, priority 2016, dated 2021).
Where two headings read alike, the source gives them in different places.

Target: T1, human mAChR M1 (Homo sapiens, UniProt P11229)
T1 sequence (P11229 1-460): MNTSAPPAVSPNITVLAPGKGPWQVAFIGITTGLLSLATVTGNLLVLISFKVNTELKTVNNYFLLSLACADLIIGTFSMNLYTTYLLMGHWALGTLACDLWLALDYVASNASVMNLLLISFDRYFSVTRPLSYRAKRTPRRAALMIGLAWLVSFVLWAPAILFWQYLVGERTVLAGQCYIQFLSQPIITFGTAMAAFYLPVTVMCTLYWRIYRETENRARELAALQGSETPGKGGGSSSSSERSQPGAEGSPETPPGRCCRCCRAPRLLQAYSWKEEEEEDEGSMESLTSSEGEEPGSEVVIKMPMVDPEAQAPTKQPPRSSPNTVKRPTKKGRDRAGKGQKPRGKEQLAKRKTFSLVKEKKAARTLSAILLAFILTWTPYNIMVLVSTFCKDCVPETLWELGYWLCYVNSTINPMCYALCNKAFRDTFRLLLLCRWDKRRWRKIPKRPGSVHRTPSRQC
Test: mAChR M1 cell-based functional assay: calcium mobilization, positive allosteric modulator mode (increase in EC20 acetylcholine response)
Conditions: for Emax: read-out: Human M1 Emax (%)
From the text: a. Cell Lines Expressing Muscarinic Acetylcholine Receptors
Chinese hamster ovary (CHO-K1) cells stably expressing rat (r)M1 were purchased from the American Type Culture Collection and cultured according to their indicated protocol. CHO cells stably expressing human (h)M2, hM3, and hM5 were described previously (Levey, et al., 1991); hMi and hM4 cDNAs were purchased from Missouri S&T cDNA Resource; rM4 cDNA was provided by T. I. Bonner (National Institutes of Health, Bethesda, Md.). rM2 and rM3 were cloned from a rat brain cDNA library and sequence verified. hMi, rM2, rM3, hM4, and rM4 cDNAs were used to stably transfect CHO-K1 cells purchased from the American Type Culture Collection using Lipofectamine2000. To make stable rM2, hM2, rM3, hM4, and rM4 cell lines for use in calcium mobilization assays, these cells also were stably transfected with a chimeric G-protein (Gqi5) (provided by B. R. Conklin, University of California, San Francisco) using Lipofectamine 2000. rMi, hMi, rM3, hM3, rM5, and hM5 cells were grown in Ham's F-12 medium containing 10% heat-inactivated fetal bovine serum (FBS), 20 mM HEPES, and 50 μg/mL G418 sulfate. rM2-Gqi5, hM2-Gqi5, and hM4-Gqi5 cells were grown in the same medium also containing 500 μg/mL Hygromycin B. Stable rM4-Gqi5 cells were grown in DMEM containing 10% heat-inactivated FBS, 20 mM HEPES, 400 μg/mL G418 sulfate, and 500 μg/mL Hygromycin B.
b. Cell-Based Functional Assay of Muscarinic Acetylcholine Receptor Activity
For high throughput measurement of agonist-evoked increases in intracellular calcium, CHO-K1 cells stably expressing muscarinic receptors were plated in growth medium lacking G418 and hygromycin at 15,000 cells/20 μL/well in Greiner 384-well black-walled, tissue culture (TC)-treated, clear-bottom plates (VWR). Cells were incubated overnight at 37° C. and 5% CO2. The next day, cells were washed using an ELX 405 (BioTek) with four washes (80 μL) of assay buffer then aspirated to 20 μL. Next, 20 μL of 16 μM Fluo-4/acetoxymethyl ester (Invitrogen, Carlsbad, Calif.) prepared as a 2.3 mM stock in DMSO and mixed in a 1:1 ratio with 10% (w/v) Pluronic F-127 and diluted in assay buffer was added to the wells and the cell plates were incubated for 50 min at 37° C. and 5% CO2. Dye was removed by washing with the ELX 405 (four […], washes of assay buffer) then aspirated to 20 μL. Compound master plates were formatted in an 11 point CRC format (1:3 dilutions) in 100% DMSO with a starting concentration of 10 mM using the BRAVO liquid handler (Agilent). Test compound CRCs were then transferred to daughter plates (240 nL) using the Echo acoustic plate reformatter (Labcyte, Sunnyvale, Calif.) and then diluted into assay buffer (40 μL) to a 2× stock using a Thermo Fisher Combi (Thermo Fisher Scientific, Waltham, Mass.).
Calcium flux was measured using the Functional Drug Screening System (FDSS) 6000 (Hamamatsu Corporation, Tokyo, Japan) as an increase in the fluorescent static ratio. Compounds were applied to cells (20 μL, 2×) using the automated system of the FDSS 6000 at 4 s into the 300 s protocol and the data were collected at 1 Hz. At 144 s into the 300s protocol, 10 μL of an EC20 concentration of the muscarinic receptor agonist acetylcholine was added (5×), followed by the addition of 12 μL an EC80 concentration of acetylcholine at the 230 s time point (5×). Agonist activity was analyzed as a concentration-dependent increase in calcium mobilization upon compound addition. Positive allosteric modulator activity was analyzed as a concentration-dependent increase in the EC20 acetylcholine response. Antagonist activity was analyzed as a concentration-dependent decrease in the EC80 acetylcholine response. Concentration-response curves were generated using a four-parameter logistical equation in XLfit curve fitting software (IDBS, Bridgewater, N.J.) for Excel (Microsoft, Redmond, Wash.) or Prism (GraphPad Software, Inc., San Diego, Calif.).

[1] = Table 2, human M1, read-out: Human M1 EC50
[2] = Table 1, mAChR M1 cell-based functional assay, PAM mode, species not given, read-out: EC50

Compound | EC50 [1] [nM] | Emax (Table 2, human M1) [%] | EC50 [2] [nM]
O=C(NC1CCS(=O)(=O)C1)c1cc(Cc2ccc(-n3cccn3)cc2)c2sccc2n1 (stereo not drawn) [Compound 439, N-(1,1-dioxothiolan-3-yl)-7-[(4-pyrazol-1-ylphenyl)methyl]thieno[3,2-b]pyridine-5-carboxamide] | 400 | 68.1 | 
Cn1ccc(-c2ccc(Cc3cc(C(=O)NCC4CCCCO4)nc4ccsc34)cn2)n1 (stereo not drawn) [Compound 359, 7-[[6-(1-methylpyrazol-3-yl)-3-pyridyl]methyl]-N-(tetrahydropyran-2-ylmethyl)thieno[3,2-b]pyridine-5-carboxamide] | 573 | 83.4 | 
Cn1ccc(-c2ccc(Cc3cc(C(=O)N[C@H]4CCOC[C@@H]4O)nc4ccn(C)c34)cc2)n1 [Compound 474, N-[(3R,4S)-3-hydroxytetrahydropyran-4-yl]-1-methyl-7-[[4-(1-methylpyrazol-3-yl)phenyl]methyl]pyrrolo[3,2-b]pyridine-5-carboxamide] | 6.43 | 70.4 | 
O=C(N[C@@H]1CCOC[C@H]1O)c1cc(Cc2ccc(-n3cccn3)cc2)c2sccc2n1 [Compound 74, N-[(3S,4R)-3-hydroxytetrahydropyran-4-yl]-7-[(4-pyrazol-1-ylphenyl)methyl]thieno[3,2-b]pyridine-5-carboxamide] | 12.2 | 84.9 | 
Cn1cc(-c2ccc(Cc3cc(C(=O)N[C@H]4CCCCC[C@@H]4O)nc4ccsc34)cn2)cn1 [Compound 226, N-[(1S,2S)-2-hydroxycycloheptyl]-7-[[6-(1-methylpyrazol-4-yl)-3-pyridyl]methyl]thieno[3,2-b]pyridine-5-carboxamide] | 9.36 | 66.2 | 
Cc1csc2c(Cc3ccc(-n4cccn4)cc3)cc(C(=O)N[C@@H]3CCOC3)nc12 [Compound 316, 3-methyl-7-[(4-pyrazol-1-ylphenyl)methyl]-N-[(3R)-tetrahydrofuran-3-yl]thieno[3,2-b]pyridine-5-carboxamide] | 1090 | 56.5 | 
O=C(NCc1cc[nH]n1)c1cc(Cc2ccc(-n3cccn3)cc2)c2sccc2n1 [Compound 448, N-(1H-pyrazol-3-ylmethyl)-7-[(4-pyrazol-1-ylphenyl)methyl]thieno[3,2-b]pyridine-5-carboxamide] | 795 | 67.8 | 
COCC(C)NC(=O)c1cc(Cc2ccc(-c3ccn(C)n3)nc2)c2sccc2n1 (stereo not drawn) [Compound 424, N-(2-methoxy-1-methyl-ethyl)-7-[[6-(1-methylpyrazol-3-yl)-3-pyridyl]methyl]thieno[3,2-b]pyridine-5-carboxamide] | 8470 | 68.6 | 
Cn1cc(-c2ccc(Oc3cc(C(=O)N[C@H]4CCCC[C@@H]4O)nc4ccsc34)c(F)c2)cn1 [Compound 2, 7-[2-fluoro-4-(1-methylpyrazol-4-yl)phenoxy]-N-[(1S,2S)-2-hydroxycyclohexyl]thieno[3,2-b]pyridine-5-carboxamide] |  |  | 2150
Cc1ccc(Cc2cc(C(=O)NC3CCCC(O)C3)nc3ccsc23)cn1 (stereo not drawn) [Compound 49, N-(3-hydroxycyclohexyl)-7-[(6-methyl-3-pyridyl)methyl]thieno[3,2-b]pyridine-5-carboxamide] |  |  | > 10000
O=C(c1cc(Cc2ccc(-n3cccn3)cc2)c2sccc2n1)N1CCNCC1 [Compound 83, piperazin-1-yl-[7-[(4-pyrazol-1-ylphenyl)methyl]thieno[3,2-b]pyridin-5-yl]methanone] | > 10000 | 52.9 | 
Cn1cc(-c2ccc(Cc3cc(C(=O)NCC4CCOCC4)nc4ccsc34)cn2)cn1 [Compound 334, 7-[[6-(1-methylpyrazol-4-yl)-3-pyridyl]methyl]-N-(tetrahydropyran-4-ylmethyl)thieno[3,2-b]pyridine-5-carboxamide] | 103 | 83 | 
Cn1ccc(-c2ccc(Cc3cc(C(=O)N[C@H]4CCCCC[C@@H]4O)nc4ccsc34)cn2)n1 [Compound 411] | 77 | 57.6 | 
COCCNC(=O)c1cc(Cc2ccc(-c3cncs3)cc2)c2sccc2n1 [Compound 403, N-(2-methoxyethyl)-7-[(4-thiazol-5-ylphenyl)methyl]thieno[3,2-b]pyridine-5-carboxamide] | 6980 | 60.8 | 
COC1CC(NC(=O)c2cc(Cc3ccc(-c4cscn4)cc3)c3sccc3n2)C1 (stereo not drawn) [Compound 204, N-(3-methoxycyclobutyl)-7-[(4-thiazol-4-ylphenyl)methyl]thieno[3,2-b]pyridine-5-carboxamide] | 897 | 83.5 | 
O=C(NCC1CCOC1)c1cc(Cc2ccc(-c3nccs3)cc2)c2sccc2n1 (stereo not drawn) [Compound 374, N-(tetrahydrofuran-3-ylmethyl)-7-[(4-thiazol-2-ylphenyl)methyl]thieno[3,2-b]pyridine-5-carboxamide] | 556 | 73.1 | 
Cn1cc(-c2ccc(Cc3cc(C(=O)N[C@@H]4CCC[C@H]4O)nc4ccsc34)cc2)nn1 [Compound 149, N-[(1R,2R)-2-hydroxycyclopentyl]-7-[[4-(1-methyltriazol-4-yl)phenyl]methyl]thieno[3,2-b]pyridine-5-carboxamide] | 9.84 | 85 | 
Cc1csc2c(Cc3ccc(-n4cccn4)cc3)cc(C(=O)NC[C@H]3CCCO3)nc12 [Compound 322, 3-methyl-7-[(4-pyrazol-1-ylphenyl)methyl]-N-[[(2R)-tetrahydrofuran-2-yl]methyl]thieno[3,2-b]pyridine-5-carboxamide] | 620 | 75.1 | 
Cc1nc(-c2ccc(Cc3cc(C(=O)NC4CCOCC4)nc4ccsc34)cc2)cs1 [Compound 191, 7-[[4-(2-methylthiazol-4-yl)phenyl]methyl]-N-tetrahydropyran-4-yl-thieno[3,2-b]pyridine-5-carboxamide] | 247 | 86.9 | 
CC1(NC(=O)c2cc(Cc3ccc(-n4cccn4)cc3)c3sccc3n2)COC1 [Compound 276, N-(3-methyloxetan-3-yl)-7-[(4-pyrazol-1-ylphenyl)methyl]thieno[3,2-b]pyridine-5-carboxamide] | 5500 | 64.5 | 
Cc1ncc(Cc2cc(C(=O)NC3CCCCNC3=O)nc3ccsc23)s1 (stereo not drawn) [Compound 144, 7-[(2-methylthiazol-5-yl)methyl]-N-(2-oxoazepan-3-yl)thieno[3,2-b]pyridine-5-carboxamide] | > 10000 | 50.7 | 
O=C(N[C@H]1CCOC[C@@H]1O)c1cc(Cc2ccc(-n3cccn3)cc2)c2sccc2n1 [Compound 293, N-[(3R,4S)-3-hydroxytetrahydropyran-4-yl]-7-[(4-pyrazol-1-ylphenyl)methyl]thieno[3,2-b]pyridine-5-carboxamide] | 6 | 61.6 | 
